By IC50 is commonly meant the point on the concentration scale where inhibition reaches its midpoint. One may read the inhibition as the drop in the measured response relative to a control, in per cent. The low end stands for a weak effect, the high end for a strong effect.

Assay [1] deals with Radical scavenging activity. Briefly: Antioxidant activity assessed as DPPH radical scavenging activity at 667 uM after 15 mins. The format is functional. On the technique in general: The DPPH test is a chemical assay of radical scavenging.
Assay [2] in a line: Inhibition of soybean arachidonate 15-lipoxygenase. Also on record: species or system Glycine max.
Assay [3] relates to Mycobacterium tuberculosis. Put plainly: Antimycobacterial activity against Mycobacterium tuberculosis H37Rv ATCC 27294 at 6.25 ug/mL by microplate alamar blue assay. The format is functional. (Alamar Blue is a resazurin reagent that responds to reducing activity.)
Assay [4] addresses T1, Polyunsaturated fatty acid lipoxygenase ALOX15 (Oryctolagus cuniculus, UniProt P12530).
T1 sequence (P12530 whole entry): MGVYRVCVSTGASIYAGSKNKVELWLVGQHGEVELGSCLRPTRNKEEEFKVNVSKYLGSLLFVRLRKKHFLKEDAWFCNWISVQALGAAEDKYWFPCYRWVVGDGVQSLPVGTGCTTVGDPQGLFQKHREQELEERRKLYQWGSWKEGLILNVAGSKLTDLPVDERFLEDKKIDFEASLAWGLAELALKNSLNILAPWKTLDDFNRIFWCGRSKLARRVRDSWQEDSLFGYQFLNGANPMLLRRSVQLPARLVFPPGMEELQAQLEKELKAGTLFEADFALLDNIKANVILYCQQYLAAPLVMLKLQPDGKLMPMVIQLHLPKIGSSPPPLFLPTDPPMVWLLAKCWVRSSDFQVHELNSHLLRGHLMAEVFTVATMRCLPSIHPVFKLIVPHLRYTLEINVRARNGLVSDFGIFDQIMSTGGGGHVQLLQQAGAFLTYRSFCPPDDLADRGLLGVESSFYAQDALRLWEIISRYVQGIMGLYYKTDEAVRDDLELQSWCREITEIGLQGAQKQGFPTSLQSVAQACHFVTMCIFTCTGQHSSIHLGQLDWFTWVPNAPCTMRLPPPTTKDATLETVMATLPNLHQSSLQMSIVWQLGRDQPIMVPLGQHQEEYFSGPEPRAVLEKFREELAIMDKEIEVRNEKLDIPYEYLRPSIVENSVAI
Put plainly: Inhibition of rabbit reticulocytes arachidonate 15-lipoxygenase.

Assay [5] can be described thus: Antioxidant activity assessed as inhibition of lipid peroxidation after 30 mins. Format: functional.

Consider `COc1ccccc1COc1c(-c2ccccc2)c(-c2ccccc2)n2ccc(C#N)cc12`, for which the Activity in assay [1] stood at 1.6%. Also, the midpoint of inhibition in assay [2], the IC50, lay at 29 µM.

`COc1ccc(C(O)c2c(-c3ccccc3)c(-c3ccccc3)n3ccc(C#N)cc23)cc1` (configuration not stated): the inhibition at 6.25 µg/mL in assay [3] was 87%. Further, the IC50 in assay [2] was 17 µM.

In assay [2], `Cc1ccc(-c2c(OS(=O)(=O)c3ccc(C)cc3)c3cc(C#N)ccn3c2-c2ccc(C)cc2)cc1` yielded an IC50 of 20 µM.

With `N#Cc1ccn2c(-c3ccccc3)c(-c3ccccc3)c(OCc3ccc(F)cc3)c2c1`, in assay [1], the Activity was found to be 1.8%. In assay [2], this compound had an IC50 of 35 µM.

For the compound `CC(=O)c1ccn2c(-c3ccccc3)c(-c3ccccc3)c(OS(=O)(=O)c3ccc(C)cc3)c2c1`, in assay [2], half-maximal inhibition (IC50) was put at 23 µM.

For `N#Cc1ccn2c(-c3ccccc3)c(-c3ccccc3)c(C(=O)c3ccccc3)c2c1`, the 50% inhibitory concentration (IC50) in assay [4] turned out to be 43 µM; in assay [2], 23 µM. In assay [3], this compound returned an inhibition at 6.25 µg/mL of 33%.

Compound `Cc1ccc(-c2cc3cc(C#N)ccn3c2-c2ccc(C)cc2)cc1` showed an IC50 in assay [2] of 27 µM.

On to `N#Cc1ccn2c(-c3ccccc3)c(-c3ccccc3)c(OCOCc3ccccc3)c2c1`, for which the half-maximal inhibitory concentration (IC50) in assay [4] is 39 µM; in assay [2], 27 µM. In addition, the Activity in assay [1] turned out to be 0.1%.

`COc1cccc(-c2c(-c3ccccc3)c(-c3ccccc3)n3ccc(C#N)cc23)c1`: the Activity in assay [1] is -0.3%. The figures for the 50% inhibitory concentration (IC50) in assay [2] and in assay [5] were 20 µM and greater than 100 µM, respectively.

Consider `COc1ccc(COc2c(-c3ccccc3)c(-c3ccccc3)n3ccc(C#N)cc23)cc1`, for which the Activity in assay [1] was determined as 33.3%. Further, the IC50 in assay [2] is 32 µM.

Turning to `N#Cc1ccn2c(-c3ccccc3)c(-c3ccccc3)c(-c3ccco3)c2c1`, the Activity in assay [1] is -0.6%. Besides, the IC50 in assay [2] was 24 µM; in assay [5], greater than 100 µM.

Turning to `N#Cc1ccn2c(-c3ccccc3)c(-c3ccccc3)c(OCc3ccccc3)c2c1`, the Activity in assay [1] was determined as 0.8%. In addition, it took 31 µM to reach half-maximal inhibition in assay [2] (IC50).

On to `CCCCc1c(OS(=O)(=O)c2ccc(C)cc2)c2cc(C#N)ccn2c1CCCC`, for which half-maximal inhibition in assay [2] (IC50) required 30 µM.

`O=c1c(O)c(-c2ccc(O)c(O)c2)oc2cc(O)cc(O)c12` [QUERCETIN]: the IC50 in assay [4] stood at 37 µM; in assay [2] it was 51 µM.

In the case of `Cc1ccc(S(=O)(=O)Oc2c(-c3ccccc3)c(-c3ccccc3)n3ccc(C#N)cc23)cc1C`, in assay [2], the IC50 worked out at 19 µM.

For `N#Cc1ccn2c(-c3ccc(Cl)cc3)c(-c3ccc(Cl)cc3)cc2c1`, the IC50 in assay [2] was 33 µM.

The compound `COc1ccc(S(=O)(=O)Oc2c(-c3ccccc3)c(-c3ccccc3)n3ccc(C#N)cc23)cc1` yielded an IC50 in assay [2] of 25 µM.

On to `N#Cc1ccn2c(-c3ccccc3)c(-c3ccccc3)c(OCc3cccc(Cl)c3)c2c1`, for which the Activity in assay [1] was -0.1%. Besides, the IC50 in assay [2] came out at 31 µM.

In assay [3], `CC(O)c1c(-c2ccccc2)c(-c2ccccc2)n2ccc(C#N)cc12` (configuration not stated) displayed an inhibition at 6.25 µg/mL of 78%. The same compound came in with an IC50 in assay [2] of 26 µM.

In the case of `Cc1cc(C)c(S(=O)(=O)Oc2c(-c3ccccc3)c(-c3ccccc3)n3ccc(C#N)cc23)c(C)c1`, in assay [2], the IC50 was 17 µM.

On to `N#Cc1ccn2c(-c3ccccc3)c(-c3ccccc3)c(-c3ccsc3)c2c1`, for which the Activity in assay [1] is 0%. In addition, the IC50 in assay [2] is 19 µM; in assay [5], greater than 100 µM.

For `Cc1ccc(S(=O)(=O)Oc2c(-c3ccccc3)c(-c3ccccc3)n3ccc(C=O)cc23)cc1`, the midpoint of inhibition in assay [2], the IC50, lay at 20 µM.

On to `N#Cc1ccn2c(-c3ccccc3)c(-c3ccccc3)c(OS(=O)c3ccsc3)c2c1` (configuration not stated), for which, in assay [2], the IC50 came out at 23 µM.

Take `C=Cc1c(-c2ccccc2)c(-c2ccccc2)n2ccc(C#N)cc12`: the IC50 in assay [5] was greater than 100 µM.

With `COc1ccc(C(=O)Oc2c(-c3ccccc3)c(-c3ccccc3)n3ccc(C#N)cc23)cc1`, in assay [1], the Activity was 5.4%. Moreover, the IC50 in assay [2] is 28 µM.

Turning to `Cc1ccc(COc2c(-c3ccccc3)c(-c3ccccc3)n3ccc(C#N)cc23)cc1`, the Activity in assay [1] is -0.8%. This compound showed an IC50 in assay [2] of 37 µM.

In assay [3], `N#Cc1ccn2c(-c3ccccc3)c(-c3ccccc3)c(Br)c2c1` yielded an inhibition at 6.25 µg/mL of 69%. Also, the IC50 in assay [5] is greater than 100 µM.

In assay [2], `COc1ccc(S(=O)(=O)Oc2c(-c3ccc(C)cc3)c(-c3ccc(C)cc3)n3ccc(C#N)cc23)cc1` came in with an IC50 of 25 µM.

As for `COc1cccc(C(=O)Oc2c(-c3ccccc3)c(-c3ccccc3)n3ccc(C#N)cc23)c1`, the Activity in assay [1] was 1.2%. In assay [2], this compound came in with an IC50 of 28 µM.

For `CCc1c(OS(=O)(=O)c2ccc(C)cc2)c2cc(C#N)ccn2c1CC`, in assay [2], the IC50 is 29 µM.

`COc1ccc(-c2c(OS(=O)(=O)c3ccc(C)cc3)c3cc(C#N)ccn3c2-c2ccc(OC)cc2)cc1` returned an IC50 in assay [2] of 24 µM.

With `COc1ccccc1-c1c(-c2ccccc2)c(-c2ccccc2)n2ccc(C#N)cc12`, the Activity in assay [1] is -0.2%. For the same compound, the IC50 in assay [2] is 20 µM; in assay [5], greater than 100 µM.

In assay [2], `CS(=O)(=O)Oc1c(-c2ccccc2)c(-c2ccccc2)n2ccc(C#N)cc12` had a half-maximal inhibitory concentration (IC50) of 22 µM.

For the compound `COc1ccccc1C(=O)Oc1c(-c2ccccc2)c(-c2ccccc2)n2ccc(C#N)cc12`, in assay [1], the Activity amounted to 4.7%. The compound also came in with an IC50 in assay [2] of 30 µM.

As to `N#Cc1ccn2c(-c3ccccc3)c(-c3ccccc3)c(-c3cccs3)c2c1`, the Activity in assay [1] was -1.8%. Besides, the IC50 in assay [2] was 20 µM; in assay [5], greater than 100 µM.

The compound `N#Cc1ccn2c(-c3ccccc3)c(-c3ccccc3)c(OS(=O)(=O)c3ccc(Cl)cc3)c2c1` registered an IC50 in assay [2] of 22 µM.

Regarding `N#Cc1ccn2c(-c3ccccc3)c(-c3ccccc3)c(OS(=O)c3cccs3)c2c1` (configuration not stated), in assay [2], the IC50 is 21 µM.

`N#Cc1ccn2c(-c3ccccc3)c(-c3ccccc3)c(OS(=O)(=O)c3ccc(C(F)(F)F)cc3)c2c1` showed a concentration for half-maximal inhibition (IC50) in assay [2] of 23 µM.

As for `Cc1ccc(S(=O)(=O)Oc2c(-c3ccccc3)c(-c3ccccc3)n3ccccc23)cc1`, the IC50 in assay [2] is 25 µM.

With `COC(c1ccccc1)c1c(-c2ccccc2)c(-c2ccccc2)n2ccc(C#N)cc12` (configuration not stated), 6.25 µg/mL produced 74% inhibition in assay [3]. In assay [2], this compound gave an IC50 of 21 µM.

Turning to `N#Cc1ccn2c(-c3ccccc3)c(-c3ccccc3)c(C=O)c2c1`, the IC50 in assay [4] was 61 µM; in assay [2], 29 µM. The compound also displayed an inhibition at 6.25 µg/mL in assay [3] of 35%.

Turning to `N#Cc1ccn2c(-c3ccccc3)c(-c3ccccc3)c(Cc3ccccc3)c2c1`, the IC50 in assay [4] is 46 µM; in assay [2] it was 27 µM. The compound also yielded an inhibition at 6.25 µg/mL in assay [3] of 43%.

`N#Cc1ccn2c(-c3ccccc3)c(-c3ccccc3)c(OCOC(COCc3ccccc3)COCc3ccccc3)c2c1`: the Activity in assay [1] turned out to be 4.2%. In assay [2], this compound returned an IC50 of 31 µM.

`CC(C)S(=O)(=O)Oc1c(-c2ccccc2)c(-c2ccccc2)n2ccc(C#N)cc12` displayed an IC50 in assay [2] of 42 µM.

As to `N#Cc1ccn2c(-c3ccccc3)c(-c3ccccc3)c(-c3ccccc3)c2c1`, the inhibition at 6.25 µg/mL in assay [3] is 8%. In addition, the IC50 was 28 µM in assay [2] and greater than 100 µM in assay [5].

Consider `Cc1c(-c2ccccc2)c(-c2ccccc2)n2ccc(C#N)cc12`, for which, in assay [1], the Activity is -0.9%. Moreover, at 6.25 µg/mL the inhibition in assay [3] was 41%. The IC50 in assay [2] was 27 µM.

`CN(C)S(=O)(=O)Oc1c(-c2ccccc2)c(-c2ccccc2)n2ccc(C#N)cc12` had an IC50 in assay [2] of 25 µM.

Take `Cc1ccccc1S(=O)(=O)Oc1c(-c2ccccc2)c(-c2ccccc2)n2ccc(C#N)cc12`: inhibition in assay [2] was half-maximal at 22 µM (IC50).

In the case of `COc1ccc(S(=O)(=O)Oc2c(-c3ccccc3)c(-c3ccccc3)n3ccc(C#N)cc23)c(OC)c1`, the IC50 in assay [2] came to 27 µM.

As to `CC(O)(c1ccccc1)c1c(-c2ccccc2)c(-c2ccccc2)n2ccc(C#N)cc12` (configuration not stated), in assay [3], the inhibition at 6.25 µg/mL was 71%. Moreover, it took 17 µM to reach half-maximal inhibition in assay [2] (IC50).

Compound `CCS(=O)(=O)Oc1c(-c2ccccc2)c(-c2ccccc2)n2ccc(C#N)cc12` displayed an IC50 in assay [2] of 28 µM.

In the case of `Cc1ccc(S(=O)(=O)Oc2c(-c3ccc(F)cc3)c(-c3ccc(F)cc3)n3ccc(C#N)cc23)cc1`, in assay [2], 22 µM corresponded to half-maximal inhibition (IC50).

Regarding `Cc1ccc(S(=O)(=O)Oc2c(-c3ccc(Cl)cc3)c(-c3ccc(Cl)cc3)n3ccc(C#N)cc23)cc1`, in assay [2], half-maximal inhibition (IC50) required 20 µM.

On to `N#Cc1ccn2c(-c3ccccc3)c(-c3ccccc3)c(OS(=O)(=O)c3ccccc3)c2c1`, for which inhibition in assay [2] was half-maximal at 24 µM (IC50).

`N#Cc1ccn2c(-c3ccccc3)c(-c3ccccc3)c(CO)c2c1`: the IC50 in assay [4] is 34 µM; in assay [2], 26 µM. The inhibition at 6.25 µg/mL in assay [3] was found to be 67%.

`N#Cc1ccn2c(-c3ccccc3)c(-c3ccccc3)c(OCc3ccc(Cl)cc3)c2c1`: the Activity in assay [1] was determined as 1.3%. Also, inhibition in assay [2] was half-maximal at 31 µM (IC50).

`COc1ccc(OC)c(S(=O)(=O)Oc2c(-c3ccccc3)c(-c3ccccc3)n3ccc(C#N)cc23)c1` returned an IC50 in assay [2] of 15 µM.

Consider `CC(C)c1ccc(S(=O)(=O)Oc2c(-c3ccccc3)c(-c3ccccc3)n3ccc(C#N)cc23)cc1`, for which the IC50 in assay [2] stood at 16 µM.

Regarding `Cc1ccc(S(=O)(=O)c2c(-c3ccccc3)c(-c3ccccc3)n3ccc(C#N)cc23)cc1`, the IC50 in assay [2] turned out to be 29 µM.

`N#Cc1ccn2c(-c3ccc(F)cc3)c(-c3ccc(F)cc3)cc2c1` displayed an IC50 in assay [2] of 30 µM.

`CS(=O)(=O)c1ccc(S(=O)(=O)Oc2c(-c3ccccc3)c(-c3ccccc3)n3ccc(C#N)cc23)cc1` registered an IC50 in assay [2] of 24 µM.
